Data from US4657856A (priority 1980, dated 1987).

Test system: glutathione peroxidase produced from Mucor hiemalis YR-0929
Test: substrate specificity of glutathione peroxidase (NADPH/glutathione reductase coupled assay, 340 nm)
Type: biochemical
Conditions: hydroperoxide as substrate of the enzyme; cumene hydroperoxide = 100
Method: The reaction is illustrated by the following formulae (1) and (2): [drawing 1] wherein GSSG represents oxidized glutathione, NADPH represents reduced nicotinamide adenine dinucleotide phosphate […] and NADP represents nicotinamide adenine dinucleotide phosphate.
(1) Substrate: 30 mM Cumene hydroperoxide aqueous solution: 0.2 ml
(2) Buffer: 100 mM Phosphate buffer (pH 7.0) containing 4 mM EDTA: 1.5 ml
(3) Reduced glutathione: 10 mM Aqueous solution: 0.3 ml
(4) Sodium azide: 10 mM Aqueous solution: 0.3 ml
(5) NADPH*: 1.6 mM Aqueous solution: 0.3 ml
(6) Glutathione reductase solution: Prepared by diluting with 100 mM phosphate buffer (pH 7.0) to 1 u/ml: 0.3 ml
(7) Enzyme solution: 0.1 ml
This enzyme acts upon cumene hydroperoxide, t-butyl hydroperoxide, linolenic acid hydroperoxide, etc.

Row | Compound | Relative Activity (%)
1 | CC(C)(OO)c1ccccc1 [Cumene hydroperoxide] | 100%
2 | CC(C)(C)OO [t-Butyl hydroperoxide] | 175%
3 | Linolenic acid hydroperoxide | 98%

Test system: glutathione peroxidase produced from Mucor hiemalis YR-0929
Test: inhibition of glutathione peroxidase enzymatic action
Type: biochemical
Conditions: inhibitor concentration 10^-3 M; 25° C., pH 7.0
Method: When reacted at 25° C. and pH 7.0, this enzymatic action is inhibited by the following substances.

Row | Compound | Percent Inhibition (%)
4 | NC(=O)CI [Iodoacetamide] | 16%
5 | CCN1C(=O)C=CC1=O [N--Ethylmaleimide] | 93%
6 | O=C(O)c1cc[c]([Hg][Cl])cc1 [PCMB, Parachloromercurybenzoate] | 99%

Same assay, conditions: inhibitor concentration 10^-4 M; 25° C., pH 7.0

Row | Compound | Percent Inhibition (%)
7 | NC(=O)CI [Iodoacetamide] | 1%
8 | CCN1C(=O)C=CC1=O [N--Ethylmaleimide] | 3%
9 | O=C(O)c1cc[c]([Hg][Cl])cc1 [PCMB, Parachloromercurybenzoate] | 75%
